Tested on: crude enzymes (CEs) of Sphingopyxis sp. USTB-05
Format: in vitro ADME
Settings: NOD 11.6 mg/L with CEs 570 mg/L protein, 30 °C, HPLC-UV 238 nm; for fate of the biodegradation product in the presence of CEs: followed to 36 h
Protocol: Bacterial cells of USTB-05 in the logarithmic growth phase of the third day were harvested by centrifugation at 8000 r/min for 20 min at room temperature. The bacterial pellet was subsequently washed three times with 50 mM phosphate buffer solution (PBS, pH 7.0). Afterwards, the cells were resuspended in 30 mL PBS, and then disrupted using an ultrasonic disruptor with an output power of 600 W for 15 min in an ice bath. […].
The total biodegradation reaction volume was 5 mL containing 570 mg/L, 380 mg/L, and 211 mg/L proteins in PBS in each 10 mL centrifuge tube, respectively. […]. The reaction was performed at 30 °C and 200 r/min. Samples of 500 μL for each were taken after 0, 3, 6, 12, 24, and 36 h, respectively, and then 5 μL of concentrated hydrochloric acid (36%, v/v) was added to stop the reaction. A control bottle was prepared in the same way without CEs. All samples were centrifuged at 13,000 r/min for 10 min and then the concentrations of residual NOD and its products in supernatants were analyzed using HPLC. All experiments were carried out in triplicate.
NOD and its enzymatic biodegradation products were firstly analyzed using a HPLC system (Shimadzu LC-10ATVP, Shimadzu Co., Ltd., Kyoto, Japan) with an ultraviolet (UV) Diode Array Detector at 238 nm using a Agilent TC-C18 column (4.6 mm × 250 mm) (Agilent Technologies Inc., 1200 series, Santa Clara, CA, USA). […]. The flow rate was 1 mL/min and the injection amount was 20 μL. The concentration of NOD was determined by calibration of peak area (at 238 nm) with that of the standard NOD. The biodegradation products that contained Adda were monitored by HPLC based on the assumption that their molar absorption coefficient at 238 nm is the same as NOD.

| SMILES | time at which the product peak appeared on HPLC during enzymatic biodegradation of NOD | fate of the biodegradation product in the presence of CEs |
| --- | --- | --- |
| CC=C(C(=O)N[C@@H](C(=O)O)[C@H](C)C(=O)N[C@@H](CCCNC(=N)N)C(=O)O)N(C)C(=O)CC[C@@H](NC(=O)[C@@H](C)[C@@H](N)/C=C/C(C)=C/[C@H](C)[C@H](Cc1ccccc1)OC)C(=O)O [product A] | 3 h | completely converted to product B |
| CO[C@@H](Cc1ccccc1)[C@@H](C)/C=C(C)/C=C/[C@H](N)[C@H](C)C(=O)O [product B, (2S,3S,8S,9S)-3-amino-9-methoxy-2,6,8-trimethyl-10-phenyldeca-4(E),6(E)-dienoic acid] | 6 h | always increased over time until 36 h |
